Measured values from US9249128B2 (priority 2010, dated 2016).

Tests used:
HSL = target: T1, HSL (Mus musculus, UniProt P54310); assay: Competitive ABPP of HSL in rosiglitazone-differentiated 3T3-10T1/2 adipocyte proteome; format: biochemical
T1 construct: ABPP analysis of HSL from a rosiglitazone-differentiated 3T3-10T1/2 adipocyte proteome; endogenous in cells; host or cells: rosiglitazone-differentiated 3T3-10T1/2 adipocytes
T1 sequence (P54310 1-759): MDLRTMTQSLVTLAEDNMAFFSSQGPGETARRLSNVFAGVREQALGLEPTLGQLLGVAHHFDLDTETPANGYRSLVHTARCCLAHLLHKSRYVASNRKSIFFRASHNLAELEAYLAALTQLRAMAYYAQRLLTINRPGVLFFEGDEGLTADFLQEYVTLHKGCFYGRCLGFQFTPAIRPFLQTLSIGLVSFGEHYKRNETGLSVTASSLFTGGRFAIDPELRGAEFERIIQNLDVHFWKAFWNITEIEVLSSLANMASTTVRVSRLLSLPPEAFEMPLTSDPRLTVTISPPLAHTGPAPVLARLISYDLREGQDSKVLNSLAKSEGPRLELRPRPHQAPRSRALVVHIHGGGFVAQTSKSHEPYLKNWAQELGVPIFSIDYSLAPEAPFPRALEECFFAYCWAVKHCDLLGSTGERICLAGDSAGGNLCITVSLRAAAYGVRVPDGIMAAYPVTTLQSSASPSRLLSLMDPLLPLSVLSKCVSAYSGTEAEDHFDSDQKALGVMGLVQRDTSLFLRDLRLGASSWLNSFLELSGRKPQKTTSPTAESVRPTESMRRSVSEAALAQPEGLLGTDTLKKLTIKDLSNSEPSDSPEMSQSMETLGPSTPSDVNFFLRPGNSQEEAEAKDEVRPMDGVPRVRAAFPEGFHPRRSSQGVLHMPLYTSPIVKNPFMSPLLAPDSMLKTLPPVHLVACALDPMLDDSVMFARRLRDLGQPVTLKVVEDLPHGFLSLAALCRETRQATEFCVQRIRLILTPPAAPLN
Description: For ABPP experiments, cell lysate and tissue proteomes were treated with 1 μM FP-rhodamine for 30 min at room temperature (50 μL total reaction volume) as described previously (Nomura et al., 2010). Reactions were quenched with one volume of standard 4×SDS/PAGE loading buffer (reducing), separated by SDS/PAGE (10% acrylamide), and visualized in-gel with a Hitachi FMBio IIe flatbed fluorescence scanner (MiraiBio). Inhibitors were preincubated prior (30 min or 4 h at 37° C. in vitro or in situ, respectively) to the addition of FP-rhodamine.

PC3 and DU145 cells = assay: Cell migration assay (Transwell); format: cell-based, human; details: for PC3 and DU145 migration: 10 μM, 4 h in situ
Description: Inhibitors were dissolved in DMSO and diluted into media or buffer prior to cell or proteome treatment, respectively. For in vitro treatment, final DMSO concentration was 4%. For in situ treatments of cells for ABPP, lipid measurements, migration, cell-survival, and invasion assays, 2×10^6 cells were seeded in 6 cm dishes (˜100% confluency) 24 h prior to inhibitor pre-treatment (in DMSO at 0.1% final concentration) in serum-free media (3 mL) for the designated time before harvesting cells for ABPP or lipid measurements or before the initiation of migration, cell-survival, and invasion assays.
Cell migration, cell survival, and invasion studies were performed as previously described (Nomura et al., 2010). Briefly, migration assays were performed in Transwell chambers (Corning) with 8 μm pore-sized membranes coated with 10 μg/mL collagen at 37° C. for LNCaP (24 h), PC3 (4 h) and DU145 cells (24 h), respectively. Cell survival assays were performed using the Cell Proliferation Reagent WST-1 (Roche) Invasion assays were conducted using the BD Matrigel Invasion Chambers per the manufacturer's protocol. Inhibitors were preincubated for the stated duration before seeding cells into migration, cell-survival, or invasion chambers. Prior to seeding the cells in these chambers, cells were serum-starved for 4 h. Inhibitors were also present during the migration, cell-survival, and invasion assays.

[1] = tested on: serine hydrolase activities detected in the brain proteome; assay: Competitive ABPP-MudPIT of brain membrane proteomes from treated mice; format: in vivo, mouse; details: 20 mg/kg, oral gavage, 4 hr; off-target is carboxylesterase ES1
Description: Competitive ABPP-MudPIT experiments were performed as previously described (Nomura et al., 2010). Briefly, 1 mg of proteome was labeled with 5 μM FP-biotin, followed by solubilization with 1% Triton X-100, denaturation by SDS and heating, avidin precipitation of labeled proteins, and on-bead tryptic digest. Tryptic peptides were then loaded on to a biphasic (strong cation exchange/reverse phase) capillary column and analyzed by two-dimensional liquid chromatography (2D-LC) separation in combination with tandem mass spectrometry using an Agilent 1100 LC system coupled with a ThermoFisher LTQ linear ion trap mass spectrometer. Spectral counts are reported as the average of three samples with the standard error of the mean (SEM).
JW480 was administered by oral gavage (in PEG300, 4 μL/g mouse) or intraperitoneally (in 18:1:1 v/v/v solution of saline:ethanol:emulphor, 10 μL/g). After the indicated amount of time, mice were anesthetized with isoflurane and killed by decapitation. Tissues were removed and then flash frozen in liquid N2. Tissues were stored at −80° C. until use. Animal experiments were conducted in accordance with the guidelines of the institutional Animal Care and Use Committee of The Scripps Research Institute.

KIAA1363 = target: T2, KIAA1363 (Homo sapiens, UniProt Q6PIU2); assay: 2-acetyl MAGE hydrolytic activity assay in cancer cells treated in situ; format: cell-based; set-up: PC3 cancer cells, which have high endogenous KIAA1363 levels; endogenous in cells; host or cells: PC3 (2-acetyl MAGE assay also DU145 and SKOV3); details: JW480 1 μM, 48 h; PC3 and DU145 cells
T2 sequence (Q6PIU2 1-408): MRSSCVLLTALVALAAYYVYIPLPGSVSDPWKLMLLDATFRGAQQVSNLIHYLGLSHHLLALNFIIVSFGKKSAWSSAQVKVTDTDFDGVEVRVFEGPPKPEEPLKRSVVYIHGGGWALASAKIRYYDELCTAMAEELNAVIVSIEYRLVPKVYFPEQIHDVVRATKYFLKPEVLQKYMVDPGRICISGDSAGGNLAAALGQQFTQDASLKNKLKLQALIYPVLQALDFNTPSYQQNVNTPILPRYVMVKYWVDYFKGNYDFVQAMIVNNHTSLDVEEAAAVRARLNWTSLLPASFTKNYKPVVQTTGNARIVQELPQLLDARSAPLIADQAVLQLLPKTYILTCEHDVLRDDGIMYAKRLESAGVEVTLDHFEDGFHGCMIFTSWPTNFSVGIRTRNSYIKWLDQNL
Description: Cells were pretreated with KIAA1363 inhibitors in situ (for 4 hr in serum-free F-12K media before harvesting cells by scraping) or in vitro (for 30 min at 37° C. in PBS) before addition of 2-acetyl MAGE (100 μM) to cell lysates at room temperature for 30 min in a volume of 200 μL. Reactions were quenched with 600 μL 2:1 chloroform:methanol and 10 nmol of C12:0 MAGE internal standard was added. The organic layer was extracted and 30 μL injected into an Agilent 1100-MSD LC-MS. LC-MS settings were as previously described (Chiang et al., 2006). Product levels (C16:0 MAGE) were quantified in relation to the internal standard. Specific activity was determined during the linear phase of enzymatic reactions (i.e., less than 20% substrate utilized).
Cell lysates (20 μg) in Tris buffer were then incubated with lipid (100 mM, e.g., 2-acetyl MAGE for KIAA1363 activity) at room temperature for 30 min in a volume of 200 ml. Reactions were quenched with 600 ml 2:1 chloroform:methanol and 10 nmol of C12:0 MAGE internal standard was added. […] Product levels (C16:0 MAGE for KIAA1363 activity) were quantified in relation to internal standard levels and standard curves generated between varying lipid concentration versus constant internal standard levels. Specific activity was determined during the linear phase of enzymatic reactions (i.e., less than 20% substrate utilized)

| Structure (SMILES) | Cross-reactivity with HSL (HSL) | PC3 and DU145 migration (PC3 and DU145 cells) | Off-targets among ~30 brain serine hydrolase activities (ABPP-MudPIT) [1] | Migration of PC3 cells (PC3 and DU145 cells; 1 μM, 48 h in situ) | 2-acetyl MAGE hydrolase activity (KIAA1363) |
| --- | --- | --- | --- | --- | --- |
| COc1ccc(CNC(=O)Oc2cccc3c2OC(C)(C)C3)cc1 [JW148, 2,2-dimethyl-2,3-dihydrobenzofuran-7-yl 4-methoxybenzylcarbamate] | cross-reactivity | impair |  |  |  |
| CC(C)c1ccccc1OC(=O)NCCc1ccc2ccccc2c1 [JW480, 2-isopropylphenyl (2-(naphthalen-2-yl)ethyl)carbamate] | negligible cross-reactivity | impair | only a single off-target was observed | reduced | completely blocked |
